Entries after “also recorded” stand apart in the source; their conditions may differ. Blank lines part the entries; values can stand above or below the compound they belong to.
Experiments:
[1] = test system: β-glucosidase; experiment: Inhibition of β-glucosidase, kinetic analysis by capillary zone electrophoresis; format: biochemical; settings: sweet almond enzyme, CZE
Experimental: (§1) Initially, the total volume of assay solution was reduced because this is the only way to reduce the amount of enzyme and substrate used in the assay. The 96-well microtiter plate with a round bottom was used for the assay, and each well was sealed with tape. Thus, the assay was examined and carried out in a total volume of as little as 20 μL containing 1.76 mU of a glycosidase such as β-N-acetylhexosaminidase P. The electrophoresis was carried out using 50 mM borate buffer (pH 9.2˜10.2) as the electrolyte and the progress was monitored at 37° C. The injected volume of approximately 38.4 nL of a reaction mixture contained as little as 3.8 pmol of the substrate p-nitrophenyl (PNP) glycoside, thus the amount of PNP detected was less than 10^−12 mol. The peak corresponding to the p-nitrophenol, which appeared at around 6.5 min. in these conditions, was monitored at 405 nm.
(§2) The inhibition studies of compounds 1–9 against α- and β-glucosidases (from Saccharomyces sp. and sweet almond, respectively) were carried out. PNP-glycosides of the parent sugars were used as the substrates throughout the assay. The apparent Km and Vmax values for each substrate were calculated from the double-reciplocal plot of standard 1/v −1/[substrate] curve.^18 The Ki values were determined from a replot of the slopes of Lineweaver-Burk plots vs. the inhibitor concentrations.
Kinetic analyssis of β-glucosidase: To a 1-mL disposable cuvette was added 950 μL of 0.1 M acetate buffer (pH 5.0) solution, 20 μL of inhibitor solution, and 20 μL of 20 mM p-nitrophenyl-β-D-glucopyranoside solution. The solution was well mixed and warmed at 37° C. for 5 min, then 20 μL of the enzyme solution, which was dissolved in ice-cold Tris-HCl buffer (pH 7.8) and diluted with 10 mM phosphate buffer (pH 7.0) containing 0.2% of BSA, was added. The reaction was monitored at 400 nm on a Beckmann DU-70 spectrophotometer for 15 seconds, and the initial rate of hydrolysis was calculated. The same procedure was repeated with three other substrate concentrations. After the initial rates were accumulated, the corresponding Lineweaver-Burk plot at that inhibitor concentration was constructed.
(§3) Condition of capillary zone electrophoresis: Assays were performed on a Waters Quanta 4000E capillary electrophoresis system, which was equipped with a 53 cm×75 μm fused i.d. silica capillary. Detection was carried out by on-column measurement of u.v. absorption at 405 nm at 7.5 cm from the cathode. The capillary used was pretreated or regenerated with 0.1 M KOH (2 min) and elution buffer before each injection. Samples were loaded by means of hydrostatic pressure at 10 cm height for 30 sec (ca 38.4 nl). […] Pherograms were recorded on Millennium 2010 system from Millipore Corp. […]

[2] = test system: α-glucosidase; experiment: Inhibition of α-glucosidase, kinetic analysis by capillary zone electrophoresis; format: biochemical; settings: Saccharomyces sp. enzyme, CZE
Experimental: as §1, §2
Kinetic analysis of α-glucosidase: To a 1-mL disposable cuvette was added 950 μL of 0.1 M phosphate buffer (pH 7.0) solution, 20 μL of inhibitor solution, and 20 μL of 20 mM p-nitrophenyl-α-D-glucopyranoside solution. The solution was well mixed and warmed at 37° C. for 5 min, then 20 μL of the enzyme solution in 10 mM phosphate buffer (pH 7.0) containing 0.2% of BSA was added. The reaction was monitored at 400 nm on Beckmann DU-70 spectrophotometer for 15 seconds, and the initial rate of hydrolysis was calculated. The same procedure was repeated with three other substrate concentrations. After the initial rates were accumulated, the corresponding Lineweaver-Burk plot at that inhibitor concentration was constructed.
as §3

[3] = molecular target: α-glucosidase from baker's yeast; settings: reported by Watson et al.; cited from earlier work
[4] = molecular target: β-glucosidease from Almond; settings: β-glucosidase from Almond, reported by Watson et al.; cited from earlier work
[5] = test system: GAGs; experiment: Whole cell assay of GAG concentration; format: cell-based
[6] = molecular target: T1, β-N-acetylhexosaminidase A (Homo sapiens, UniProt P06865+P07686); experiment: Inhibition of β-N-acetylhexosaminidase A from human placenta; format: biochemical; design: Kinetic analysis of β-N-acetylhexosaminidase from human placenta; purchased Sigma Chemical Co. (St. Louis, Mo., USA); host or cells: human placenta; settings: β-N-acetylhexaoaminidases A from human placenta
T1 sequence (P06865 89-529): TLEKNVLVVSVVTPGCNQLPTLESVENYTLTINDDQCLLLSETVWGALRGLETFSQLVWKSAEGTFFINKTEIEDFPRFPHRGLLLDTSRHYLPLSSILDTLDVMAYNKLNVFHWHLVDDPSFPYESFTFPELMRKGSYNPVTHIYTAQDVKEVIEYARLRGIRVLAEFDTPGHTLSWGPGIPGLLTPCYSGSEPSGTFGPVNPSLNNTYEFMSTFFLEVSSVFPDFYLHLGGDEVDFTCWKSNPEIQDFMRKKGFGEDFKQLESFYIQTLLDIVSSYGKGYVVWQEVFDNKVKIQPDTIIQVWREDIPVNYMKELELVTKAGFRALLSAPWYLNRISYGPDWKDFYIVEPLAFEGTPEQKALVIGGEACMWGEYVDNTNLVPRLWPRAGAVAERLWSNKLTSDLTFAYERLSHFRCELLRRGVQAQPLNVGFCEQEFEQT
T1 sequence (P06865 23-74 limits assumed): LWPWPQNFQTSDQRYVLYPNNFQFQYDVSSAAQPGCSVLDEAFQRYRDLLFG
T1 sequence (P07686 315-556 limits assumed): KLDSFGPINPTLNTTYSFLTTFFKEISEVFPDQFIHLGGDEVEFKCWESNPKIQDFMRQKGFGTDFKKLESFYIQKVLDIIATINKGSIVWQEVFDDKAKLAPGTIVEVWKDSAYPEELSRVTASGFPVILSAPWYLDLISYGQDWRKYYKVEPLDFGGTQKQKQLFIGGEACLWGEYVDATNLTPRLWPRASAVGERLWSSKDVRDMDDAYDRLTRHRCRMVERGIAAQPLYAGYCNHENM
T1 sequence (P07686 122-311 limits assumed): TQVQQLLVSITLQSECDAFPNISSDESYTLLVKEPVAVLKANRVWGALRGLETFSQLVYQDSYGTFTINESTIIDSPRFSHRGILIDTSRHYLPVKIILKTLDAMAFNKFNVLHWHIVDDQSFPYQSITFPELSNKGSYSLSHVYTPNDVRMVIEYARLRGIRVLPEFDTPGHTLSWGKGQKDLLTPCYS
T1 sequence (P07686 50-107 limits assumed): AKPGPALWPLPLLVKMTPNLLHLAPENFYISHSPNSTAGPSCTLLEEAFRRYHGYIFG
Experimental: Condition of capillary zone electrophoresis: Assays were performed on a Waters Quanta 4000E capillary electrophoresis system, which was equipped with a 53 cm×75 μm fused i.d. silica capillary. Detection was carried out by on-column measurement of u.v. absorption at 405 nm at 7.5 cm from the cathode. The capillary used was pretreated or regenerated with 0.1 M KOH (2 min) and elution buffer before each injection. Samples were loaded by means of hydrostatic pressure at 10 cm height for 30 sec (ca 38.4 nl). Electrophoresis was performed at 20 kV using 50 mM sodium borate (pH 9.2 for β-N-Acetylglucosaminidase assays, pH 9.4 for β-glucosidase assays, pH 10.2 for α-glucosidase and β-N-acetylhexosaminidase assay) as electrolyte at a constant temperature of 37° C. Pherograms were recorded on Millennium 2010 system from Millipore Corp.
Kinetic analysis of β-N-acetylhexosaminidase from human placenta: Incubations were performed in a total volume of 20 μL. Unless otherwise stated, reaction mixtures contained 100 mM citrate buffer (pH 4.5), various amount of p-NP-GlcNAc (0.1–1.1 mM) and various amount of inhibitor with 3.35 mU of β-N-acetylhexosaminidase A and 1.76 mU of β-N-acetylhexosaminidase P. After preincubation for 10 min at 37° C., the reaction was started by the addition of β-N-Acetylglucosaminidase and the reaction mixture was incubated for 15 min at 37° C. […]

[7] = test system: β-N-acetylhexoaminidases; experiment: Intracellular β-N-acetylhexoaminidases activity (FIG. 12); format: cell-based
[8] = molecular target: β-N-acetylglucosaminidase; experiment: Inhibition of β-N-acetylglucosaminidase, kinetic analysis by CZE; format: biochemical; settings: β-N-acetylglucosaminidase from bovine kidney, substrate PNP-GlcNAc, replot of Lineweaver-Burk slopes
Experimental: as §1
as §2, with “concentrations. […]” for “concentrations.”

[9] = molecular target: T1, β-N-acetylhexosaminidase A; experiment: β-N-acetylhexosaminidase A inhibition with MUG and MUGS substrates (FIGS. 13A, 13B); format: biochemical

Compound: OC[C@H](O)[C@@H]1N[C@H](CO)[C@@H](O)[C@@H]1O [Compound 2, (1′R,2S,3R,4R,5R)-3,4-dihydroxy-2-[1′,2′-dihydroxy-ethyl]-5-hydroxymethyl-pyrrolidine]
inhibitory activity against β-glucosidase [1]: potent inhibitory activities
Ki [3]: 85 mM
inhibitory activity against α-glucosidase [2]: potent inhibitory activities
Ki [4]: 4 mM

Compound: CC(=O)NC[C@@H]1[C@@H](O)[C@H](O)[C@@H](CO)N1C [Compound 4, (2R,3R,4R,5R)-N-Methyl-(2-acetamidomethyl-3,4-dihydroxy-5-hydroxymethyl)-pyrrolidine]
GAG's intracellular concentration [5]: increase
GAGs' extracellular concentration [5]: decrease
Ki [6]: 24 nM
intracellular β-N-acetylhexaoaminidases activity [7]: dramatically decreased
Ki [8]: 0.00011 mM

Compound: OC[C@H]1N[C@H](CNC[C@H]2N[C@H](CO)[C@@H](O)[C@@H]2O)[C@@H](O)[C@@H]1O [Compound 9, N,N-di-{[(2R,3R,4R,5R)-(3,4-hydroxy-5-hydroxymethyl)-pyrrolidine]methyl} amine]
inhibitory activity against β-glucosidase [1]: inhibitory activity at the same level as 1 and 7
inhibitory activity against α-glucosidase [2]: as effective as 2

Compound: CC1=N[C@@H]2[C@@H](O)[C@H](O)[C@@H](CO)O[C@@H]2S1 [Compound 107, NAG-thioazoline]
inhibition activity towards MUGS compared with MUG [9]: higher inhibition activity to MUG than to MUGS

Compound: Sulfated NAG-thiozoline [Compound 108]
inhibition activity towards MUGS compared with MUG [9]: higher inhibition activity towards the 6-sulfate-4-methyl-umbelliferyl-β-D-N-acetylglucosamine (MUGS) than to 4-methyl-umbelliferyl-β-D-N-acetylglucosamine (MUG)

More lines, main results first:

inhibitory activity against β-glucosidase [1]: weak inhibitor
inhibitory activity against α-glucosidase [2]: weak inhibitor
Compound: OC[C@H](O)[C@H]1N[C@H](CO)[C@@H](O)[C@H]1O [Compound 1, (2R,3S,4R,5R,1′R)-5-hydroxymethyl-3,4-dihydroxy-2-(1′,2′-dihydroxy)ethyl-pyrrolidine]

inhibitory activity against α-glucosidase [2]: identical inhibitory activity to 2
Compound: CC(=O)NC[C@@H](O)[C@H]1N[C@H](CO)[C@@H](O)[C@@H]1O [Compound 6]
inhibitory activity against β-glucosidase [1]: potent inhibitors; also recorded: identical inhibitory activity to 2

From patent US7135578B2, “Iminocyclitol inhibitors of hexoaminidase and glycosidase” (The Scripps Research Institute, priority 1999, dated 2006)
